Consider 29 molecules from ChEMBL document CHEMBL5370623, “Discovery of Quinazoline-2,4(1H,3H)-dione Derivatives Containing a Piperizinone Moiety as Potent PARP-1/2 Inhibitors─Design, Synthesis, In Vivo Antitumor Activity, and X-ray Crystal Structure Analysis” (J Med Chem, 2023).

Assay [1] has as its target Poly [ADP-ribose] polymerase 2 (Homo sapiens, UniProt Q9UGN5). As to the kind of experiment: Inhibition of human recombinant PARP2 expressed in Escherichia coli BL21(DE3) incubated for 1 hr by ELISA assay. On the technique in general: An ELISA detects its analyte on a solid surface through an enzyme-linked reagent.
The target of assay [2] is T1, Poly [ADP-ribose] polymerase 1 (Homo sapiens, UniProt P09874). Kind of assay: Inhibition of human recombinant PARP1 expressed in Escherichia coli BL21(DE3) incubated for 1 hr by ELISA assay.
For assay [3], the system named is MX1. Kind of assay: Potentiation factor, ratio of IC50 for cytotoxicity against human MX1 cells to IC50 for cytotoxicity against human MX1 cells in presence of temozolomide. Type of assay: functional.
Assay [4] deals with MX1. Kind of assay: Cytotoxicity against human MX1 cells […] assessed as inhibition of cell growth measured after 72 hrs by MTT assay. Type of assay: functional, cell-based. The settings on record: MX1, 72 h.
Assay [5] concerns the target T1, Poly [ADP-ribose] polymerase 1. Kind of assay: Inhibition of human PARP1 in human MX1 cells assessed as enzyme-DNA trapping activity at 1 uM incubated for 24 hrs by Western blot analysis. Type of assay: cell-based. For orientation: A western blot detects proteins with antibodies after separation by electrophoresis.

Calls of active or inactive are those of the source. No cut-off for these calls is given here. Where only a bound is given, the exact number is not on record here.

T1 sequence (P09874 whole entry): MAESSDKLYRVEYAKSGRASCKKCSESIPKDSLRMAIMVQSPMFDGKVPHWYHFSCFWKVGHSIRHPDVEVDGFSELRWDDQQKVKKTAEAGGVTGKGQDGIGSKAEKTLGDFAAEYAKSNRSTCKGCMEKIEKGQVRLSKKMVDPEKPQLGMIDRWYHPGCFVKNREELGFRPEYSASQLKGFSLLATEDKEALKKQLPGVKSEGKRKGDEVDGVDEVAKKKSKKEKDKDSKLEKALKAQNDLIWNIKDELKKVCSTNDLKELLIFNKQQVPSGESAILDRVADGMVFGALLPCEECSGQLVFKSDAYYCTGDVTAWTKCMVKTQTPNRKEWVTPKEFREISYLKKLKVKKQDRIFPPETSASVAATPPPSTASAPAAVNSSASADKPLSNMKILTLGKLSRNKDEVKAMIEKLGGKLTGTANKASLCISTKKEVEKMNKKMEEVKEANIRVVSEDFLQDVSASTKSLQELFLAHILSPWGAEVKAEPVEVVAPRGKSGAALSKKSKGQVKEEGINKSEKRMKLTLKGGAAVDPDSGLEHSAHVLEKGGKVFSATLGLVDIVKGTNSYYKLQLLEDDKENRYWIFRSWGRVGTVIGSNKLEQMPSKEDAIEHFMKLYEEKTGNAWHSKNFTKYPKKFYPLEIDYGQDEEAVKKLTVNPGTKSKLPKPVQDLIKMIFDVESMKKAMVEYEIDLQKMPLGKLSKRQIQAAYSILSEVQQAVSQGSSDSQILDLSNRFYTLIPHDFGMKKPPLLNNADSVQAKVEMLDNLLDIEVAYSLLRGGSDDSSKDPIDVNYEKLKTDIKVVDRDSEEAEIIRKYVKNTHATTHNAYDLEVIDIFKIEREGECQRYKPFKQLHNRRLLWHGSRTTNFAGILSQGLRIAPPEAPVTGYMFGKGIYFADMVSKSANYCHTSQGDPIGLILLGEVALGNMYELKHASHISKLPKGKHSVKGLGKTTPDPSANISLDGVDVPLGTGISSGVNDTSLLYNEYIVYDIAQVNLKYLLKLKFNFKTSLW
Chain of Poly [ADP-ribose] polymerase 2 (Q9UGN5 whole entry): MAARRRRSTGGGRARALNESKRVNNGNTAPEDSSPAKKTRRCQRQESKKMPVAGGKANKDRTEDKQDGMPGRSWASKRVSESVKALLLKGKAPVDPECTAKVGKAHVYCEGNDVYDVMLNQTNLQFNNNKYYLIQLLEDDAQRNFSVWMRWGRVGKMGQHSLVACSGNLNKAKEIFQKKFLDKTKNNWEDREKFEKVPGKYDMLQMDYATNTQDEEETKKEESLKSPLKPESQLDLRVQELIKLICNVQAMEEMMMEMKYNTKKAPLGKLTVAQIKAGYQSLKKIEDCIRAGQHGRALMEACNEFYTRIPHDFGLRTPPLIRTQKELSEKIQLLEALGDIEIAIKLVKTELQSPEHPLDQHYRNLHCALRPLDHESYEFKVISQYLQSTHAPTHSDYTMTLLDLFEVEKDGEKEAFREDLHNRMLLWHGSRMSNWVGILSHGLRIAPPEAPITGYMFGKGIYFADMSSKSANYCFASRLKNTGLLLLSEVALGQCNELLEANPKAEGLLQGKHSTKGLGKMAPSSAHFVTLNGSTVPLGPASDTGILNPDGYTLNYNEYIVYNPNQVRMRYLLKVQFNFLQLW

Usually IC50 stands for the concentration that inhibits the measured activity by half. For the molecule `O=C1CN(C(=O)c2cc(Cn3c(=O)[nH]c(=O)c4ccccc43)ccc2F)CCN1`, the IC50 is 1.88 nM in assay [1], 4.33 nM in assay [2] and above 100 nM in assay [4]. In addition, the PF50 in assay [3] worked out at 3.23.

For `CC(C)CCN1CCN(C(=O)c2cc(Cn3c(=O)[nH]c(=O)c4ccccc43)ccc2F)CC1=O`, the figures for the IC50 in assay [1], in assay [2] and in assay [4] were 0.92 nM, 3.03 nM and 12.4 nM, respectively. Moreover, the PF50 in assay [3] is above 10.

As to `O=C(c1cc(Cn2c(=O)[nH]c(=O)c3ccccc32)ccc1F)N1CC(=O)N2CCCC2C1` (stereo not given), the IC50 was determined as 9.2 nM in assay [1], 17.2 nM in assay [2] and 46.1 nM in assay [4]. Moreover, in assay [3], the PF50 was above 10.

`CC(C1CCCCC1)N1CCN(C(=O)c2cc(Cn3c(=O)[nH]c(=O)c4ccccc43)ccc2F)CC1=O` (stereo not given): the IC50 in assay [1] is 0.26 nM; in assay [2] it was 4.92 nM; in assay [4] it was 3.65 nM. The PF50 in assay [3] was above 10.

Regarding `O=C1CN(C(=O)c2cc(Cn3c(=O)[nH]c(=O)c4ccccc43)ccc2F)CCN1CC(F)(F)F`, the figures for the IC50 in assay [1], in assay [2] and in assay [4] were 1.87 nM, 3.79 nM and 18.6 nM, respectively. For the same molecule, the PF50 in assay [3] is on record as above 10.

In the case of `CCCCN1CCN(C(=O)c2cc(Cn3c(=O)[nH]c(=O)c4ccccc43)ccc2F)CC1=O`, the IC50 in assay [1] was determined as 0.49 nM; in assay [2] it was 2.72 nM; in assay [4] it was 20 nM. For the same molecule, in assay [3], the PF50 is recorded as above 10.

Turning to `O=C(c1cc(Cn2c(=O)[nH]c(=O)c3ccccc32)ccc1F)N1CCN(c2ccccc2)C(=O)C1`, the IC50 was determined as 0.62 nM in assay [1], 1.02 nM in assay [2] and 4.88 nM in assay [4]. In addition, the PF50 in assay [3] was above 10. For the same molecule, the PARP1-DNA trapping activity entry in assay [5] is “Active”.

Regarding `O=C1CN(C(=O)c2cc(Cn3c(=O)[nH]c(=O)c4ccccc43)ccc2F)CCN1Cc1ccccc1`, the IC50 came out at 0.77 nM in assay [1], 2.54 nM in assay [2] and 3.12 nM in assay [4]. Besides, the PF50 in assay [3] is on record as above 10. For the same molecule, the PARP1-DNA trapping activity result in assay [5] is “Active”.

With `CC(C)(C)CN1CCN(C(=O)c2cc(Cn3c(=O)[nH]c(=O)c4ccccc43)ccc2F)CC1=O`, the IC50 in assay [1] came to 0.33 nM; in assay [2] it was 3.45 nM; in assay [4] it was 23.2 nM. In assay [3], the PF50 is reported as above 10.

`C#CCN1CCN(C(=O)c2cc(Cn3c(=O)[nH]c(=O)c4ccccc43)ccc2F)CC1=O`: the IC50 in assay [1] turned out to be 2.92 nM; in assay [2], 15.5 nM; in assay [4], 28.5 nM. Besides, the PF50 in assay [3] is listed as above 10.

For the molecule `CN1CCN(C(=O)c2cc(Cn3c(=O)[nH]c(=O)c4ccccc43)ccc2F)CC1=O`, the IC50 turned out to be 5.62 nM in assay [1], 3.81 nM in assay [2] and 51 nM in assay [4]. In addition, in assay [3], the PF50 was 1.18.

With `COC(=O)CN1CCN(C(=O)c2cc(Cn3c(=O)[nH]c(=O)c4ccccc43)ccc2F)CC1=O`, the values for the IC50 in assay [1], in assay [2] and in assay [4] were 2.67 nM, 8.88 nM and 45 nM, respectively. The PF50 in assay [3] was 4.64.

As to `O=C1CN(C(=O)c2cc(Cn3c(=O)[nH]c(=O)c4ccccc43)ccc2F)CCN1CC1CC1`, the 50% inhibitory concentration (IC50) in assay [1] was 2.63 nM; in assay [2], 9.75 nM; in assay [4] it was 14.9 nM. In addition, in assay [3], the PF50 is on record as above 10.

`CCCN1CCN(C(=O)c2cc(Cn3c(=O)[nH]c(=O)c4ccccc43)ccc2F)CC1=O`: the IC50 in assay [1] is 3.48 nM; in assay [2] it was 11.8 nM; in assay [4] it was 16.5 nM. The PF50 in assay [3] is on record as above 10.

As to `CCN1CCN(C(=O)c2cc(Cn3c(=O)[nH]c(=O)c4ccccc43)ccc2F)CC1=O`, the IC50 in assay [1] was 1.22 nM; in assay [2] it was 7.59 nM; in assay [4] it was 23.3 nM. Also, the PF50 in assay [3] was above 10.

For the molecule `CCC(C)CN1CCN(C(=O)c2cc(Cn3c(=O)[nH]c(=O)c4ccccc43)ccc2F)CC1=O` (stereo not given), the IC50 in assay [1] was 1.32 nM; in assay [2] it was 3.02 nM; in assay [4], 10.4 nM. In addition, the PF50 in assay [3] is above 10.

With `CCC(C)N1CCN(C(=O)c2cc(Cn3c(=O)[nH]c(=O)c4ccccc43)ccc2F)CC1=O` (stereo not given), the IC50 in assay [1] is 0.44 nM; in assay [2] it was 3.76 nM; in assay [4] it was 33.9 nM. In assay [3], the PF50 is reported as above 10.

As to `O=C1CN(C(=O)c2cc(Cn3c(=O)[nH]c(=O)c4ccccc43)ccc2F)CCN1CC1CCCCC1`, the IC50 in assay [1] was 0.24 nM; in assay [2] it was 2.38 nM; in assay [4] it was 9.39 nM. In addition, in assay [3], the PF50 is above 10. The PARP1-DNA trapping activity entry in assay [5] is “Active”.

For `CN(C)CCN1CCN(C(=O)c2cc(Cn3c(=O)[nH]c(=O)c4ccccc43)ccc2F)CC1=O`, the IC50 in assay [1] was 6.75 nM; in assay [2] it was 2.39 nM; in assay [4] it was above 100 nM.

`CCCCCN1CCN(C(=O)c2cc(Cn3c(=O)[nH]c(=O)c4ccccc43)ccc2F)CC1=O`: the half-inhibitory concentration (IC50) was 0.94 nM in assay [1], 2.71 nM in assay [2] and 331 nM in assay [4]. In addition, the PF50 in assay [3] is above 10. In addition, the PARP1-DNA trapping activity entry in assay [5] was “Active”.

For `O=C1CN(C(=O)c2cc(Cn3c(=O)[nH]c(=O)c4ccccc43)ccc2F)CCN1CCCO`, the IC50 in assay [1] is 6.31 nM; in assay [2], 17.1 nM; in assay [4] it was 60.2 nM. For the same molecule, in assay [3], the PF50 turned out to be 4.38.

Take `CC(C)=CCN1CCN(C(=O)c2cc(Cn3c(=O)[nH]c(=O)c4ccccc43)ccc2F)CC1=O`: the results for the IC50 in assay [1], in assay [2] and in assay [4] were 2.35 nM, 9.85 nM and 6.54 nM, respectively. Besides, the PF50 in assay [3] is above 10. Further, the PARP1-DNA trapping activity result in assay [5] was “Active”.

On to `O=C(c1cc(Cn2c(=O)[nH]c(=O)c3ccccc32)ccc1F)N1CCN(C2CCCC2)C(=O)C1`, for which the IC50 in assay [1] was 0.29 nM; in assay [2], 1.4 nM; in assay [4], 13.2 nM. Moreover, the PF50 in assay [3] was above 10. Moreover, in assay [5], the PARP1-DNA trapping activity result was “Active”.

Turning to `O=C(c1cc(Cn2c(=O)[nH]c(=O)c3ccccc32)ccc1F)N1CCN(C2CCCCC2)C(=O)C1`, the IC50 in assay [1] was determined as 0.33 nM; in assay [2], 2.85 nM; in assay [4], 5.79 nM. Besides, the PF50 in assay [3] is given as above 10.

Consider `CC(C)CN1CCN(C(=O)c2cc(Cn3c(=O)[nH]c(=O)c4ccccc43)ccc2F)CC1=O`, for which the IC50 in assay [1] came to 0.38 nM; in assay [2] it was 4.68 nM; in assay [4], 22.4 nM. Besides, the PF50 in assay [3] is given as above 10.

On to `CC(C)N1CCN(C(=O)c2cc(Cn3c(=O)[nH]c(=O)c4ccccc43)ccc2F)CC1=O`, for which the half-inhibitory concentration (IC50) in assay [1] was found to be 1.72 nM; in assay [2] it was 5.06 nM; in assay [4], 30.9 nM. In addition, the PF50 in assay [3] is on record as above 10.

For `COCCN1CCN(C(=O)c2cc(Cn3c(=O)[nH]c(=O)c4ccccc43)ccc2F)CC1=O`, the IC50 in assay [1] was found to be 0.83 nM; in assay [2] it was 4.86 nM; in assay [4] it was 61.3 nM. Besides, the PARP1-DNA trapping activity result in assay [5] was “Active”.

For the molecule `O=C(c1cc(Cn2c(=O)[nH]c(=O)c3ccccc32)ccc1F)N1CC(=O)N2CCCCC2C1` (stereo not given), the IC50 stood at 3.41 nM in assay [1], 9.85 nM in assay [2] and 32.6 nM in assay [4]. The PF50 in assay [3] is recorded as above 10.

Regarding `C=CCN1CCN(C(=O)c2cc(Cn3c(=O)[nH]c(=O)c4ccccc43)ccc2F)CC1=O`, the IC50 was 0.71 nM in assay [1], 4.18 nM in assay [2] and above 100 nM in assay [4].
